Experimental data reported in patent US10071106B2, “Steroidal nitrones for the treatment and prevention of a cerebral stroke or ischaemia, alzheimer and parkinson disease and amyotrophic lateral sclerosis” (FUNDACIÓN PARA LA INVESTIGACIÓN BIOMÉDICA DEL HOSPITAL …, priority 2013, dated 2018).

Tests used:
[1] = tested on: primary neuronal cultures taken from the cerebral cortex of rats; assay: Neuroprotection in primary neuronal cultures exposed to OGD 4 h and 24 h reperfusion (MTT cell viability); format: cell-based; conditions: for neuronal viability (versus 100% control): added at beginning of reperfusion, OGD 4 h, R24h
From the text: The neuroprotective power of cholesteronitrones F2 and F3 has been determined in primary neuronal cultures, cultured from 6 to 8 days, taken from the cerebral cortex of rats (Quevedo, C, Salinas, M, Alcázar, A. Initiation factor 2B activity is regulated by protein phosphatase 1, which is activated by the mitogen-activated protein kinase-dependent pathway in insulin-like growth factor 1-stimulated neuronal cells. J. Biol. Chem. 2003, 278, 16579-16586), and subjected to oxygen-glucose deprivation (OGD) (Chioua M, Sucunza D, Soriano E, Hadjipavlou-Litina D, Alcázar A, Ayuso I, Oset-Gasque M J, González M P, Monjas L, Rodríguez-Franco M I, Marco-Contelles J, Samadi A. α-aryl-N-alkyl nitrones, as potential agents for stroke treatment: synthesis, theoretical calculations, antioxidant, anti-inflammatory, neuroprotective, and brain-blood barrier permeability properties. J Med Chem. 2012, 55, 153-168), according to the following protocol:
Cell viability was measured using 3-(4,5-dimethylthiazol-2-yl)-2,5-diphenyl tetrazolium bromide (MTT).
Cholesteronitrones F2 and F3, in a range of concentrations from 0.1 to 100 μM, and from 0.5 to 10 μM, respectively, were added at the beginning of the reperfusion period to evaluate their neuroprotective power, using citicoline, a well-known neuroprotective agent, as a reference compound (Adibhatla, R M, Hatcher, J F, Dempsey, R J. Citicoline: neuroprotective mechanisms in cerebral ischemia. J. Neurochem. 2002, 80, 12-23). Citicoline was tested at variable concentrations, between 1 μM and 1 mM, a neuroprotective effect being found at 10 and 100 μM (87.4 and 88.1%, respectively), the effect of 100 μM being significant compared with the value obtained at R24h (analysis of variance (ANOVA), p<0.0021; and p<0.01, post-Dunnett test].

[2] = tested on: primary neuronal cultures taken from the cerebral cortex of rats; assay: Long-term neuroprotection in neuronal cultures exposed to OGD 4 h and reperfusion for 5 d (R5d), MTT; format: cell-based
Protocol: To evaluate the neuroprotective power of cholesteronitrones F2 and F3 against ischaemic damage in cultured neurons and simulate long-term reperfusion conditions, the cultures were exposed to OGD for 4 h, and the cells were then subjected to reperfusion for 5 d (R5d).
Cholesteronitrones F2 and F3 (at concentrations of 1.0 and 5.0 μM) were added at the beginning of the reperfusion period and after 48 h of reperfusion, to thus evaluate their long-term neuroprotective power, again using the reference molecule citicoline, according to the protocol of the MTT (see above).

[3] = tested on: global ischaemia in adult rats; assay: Global ischaemia by four-vessel occlusion, neuronal death by Fluoro-Jade B after 5 d reperfusion; format: in vivo; conditions: R5d, 0.1 mg/kg intraperitoneally
From the text: (§1) Global ischaemia was induced in adult rats according to the conventional four-vessel occlusion method [(a) Martín de la Vega C, Burda J, Nemethova M, Quevedo C, Alcázar A, Martín M E, Salinas M. Possible mechanisms involved in the down-regulation of translation during transient global ischaemia in the rat brain. Biochem J 2001, 357, 819-826; (b) García-Bonilla L, Cid C, Alcázar A, Burda J, Ayuso I, Salinas M. Regulation proteins of eukaryotic initiation factor 2-alpha subunit (eIF2a) phosphatase, under ischemic reperfusion and tolerance. J Neurochem 2007, 103, 1368-1380; (c) Ayuso M I, Hernández-Jiménez M, Martín M E, Salinas M, Alcázar A. New hierarchical phosphorylation pathway of the translational repressor eIF4E-binding protein 1 (4E-BP1) in ischemia-reperfusion stress. J Biol Chem 2010, 285, 34355-34363].
(§2) Therefore, the two vertebral arteries were completely cauterized, and after 24 h ischaemia is induced by carotid occlusion by means of small clamps for 15 min; the clamps were then removed and reperfusion was performed. After 5 d (R5d), the animals were sacrificed. The animals were treated with cholesteronitrone F2, diluted in 10% ethanol in saline solution as a carrier, administered intraperitoneally from the beginning of the reperfusion period. Ten animals were tested; one of the five animals treated with carrier died 2 d after reperfusion. All the protocols used in the experiments with animals were performed according to the guidelines approved by the Ethics Committee of Hospital Ramón y Cajal (Madrid). In the model of four-vessel occlusion cerebral ischaemia in rats, after a brief period of ischaemia delayed neurodegeneration is produced in the CA1 region of the hippocampus [(a) Kirino T. Delayed neuronal death. Neuropathology 2000, 20, S95-S97; (b) Pulsinelli W A, Brierley J B, Plum F. Temporal profile of neuronal damage in a model of transient forebrain ischaemia. […]

[4] = tested on: global ischaemia in adult rats; assay: Global ischaemia by four-vessel occlusion, apoptosis by TUNEL method after 5 d reperfusion; format: in vivo; conditions: R5d
From the text: as §1, §2

[5] = 1 μM, added at the beginning of reperfusion
[6] = 5 μM, added at the beginning of reperfusion

CC(C)CCC[C@@H](C)[C@H]1CC[C@H]2[C@@H]3CCC4=C/C(=[N+](\C)[O-])CC[C@]4(C)[C@H]3CC[C@]12C [cholesteronitrone F2, (E)-N-((8S,9S,10R,13R,14S,17R)-10,13-dimethyl-17-((R)-6-methylheptan-2-yl)-7,8,9,11,12,13,14,15,16,17-decahydro-1H-cyclopenta[a]phenanthren-3(2H,6H,10H)-ylidene)methanamine oxide] was tested, and the “Neuroprotection (%)” value ([1]; 0.1 μM, OGD conditions) was 9.6 ± 0.5%, the “Neuroprotection (%)” value ([1]; 0.5 μM, OGD conditions) was 49.3 ± 3.6% and the “Neuroprotection (%)” value ([1]; 1.0 μM, OGD conditions) was 54.3 ± 1.3 %. The “neuronal viability (versus 100% control)” value ([1]; 1 μM) was 89.1%, the “neuroprotection compared with citicoline” value ([1]; 5 μM, OGD conditions) was “significantly higher neuroprotection than that observed for citicoline” and the “Neuroprotection (%)” value ([1]; 5.0 μM, OGD conditions) was 80.7 ± 2.7 %. For the same molecule, the “neuronal viability (versus 100% control)” value ([1]; 5 μM) was 95.5%, the “Neuroprotection (%)” value ([1]; 10 μM, OGD conditions) was 47.2 ± 1.4% and the “Neuroprotection (%)” value ([1]; 50 μM, OGD conditions) was under 0%. For the same molecule, the “Neuroprotection (%)” value ([1]; 100 μM, OGD conditions) was under 0%, the “neuronal viability in R5d experiment (versus 100% control)” value ([2]; 1 μM, added after 48 h of reperfusion) was 95.7% and the “neuronal viability in R5d experiment (versus 100% control)” value [2, 5] was 110.6%. For the same molecule, the “neuronal viability in R5d experiment (versus 100% control)” value [2, 6] was 118.2%, the “neuronal death, Fluoro-Jade B” value ([3]; CA1 region, saline/carrier 70.4±2.4) was 55.1±3.4 cells per field and the “neuronal death, Fluoro-Jade B” value ([3]; cerebral cortex, carrier 6.7±3.5) was 0±0.1 cells per field. The “neuronal death, Fluoro-Jade B” value ([3]; lateral cortex, carrier 13.4±3.6) was 6.3±2.2, the “neuronal apoptotic death, TUNEL-positive” value ([4]; CA1 area, carrier 64.1±7.1) was 48.5±0.4 nuclei per field and the “neuronal apoptotic death, TUNEL-positive” value ([4]; cerebral cortex, carrier 7.2±3.8) was 1±0.5 nuclei per field. For the same molecule, the “neuronal apoptotic death, TUNEL-positive” value ([4]; lateral cortex, carrier 13.3±6.2) was 4.3±1.4.

For CC(C)CCC[C@@H](C)[C@H]1CC[C@H]2[C@@H]3CCC4=C/C(=[N+](/C)[O-])CC[C@]4(C)[C@H]3CC[C@]12C [cholesteronitrone F3, (Z)—N-((8S,9S,10R,13R,14S,17R)-10,13-dimethyl-17-((R)-6-methylheptan-2-yl)-7,8,9,11,12,13,14,15,16,17-decahydro-1H-cyclopenta[a]phenanthren-3(2H,6H,10H)-ylidene)methanamine oxide], the “Neuroprotection (%)” value ([1]; 0.5 μM, OGD conditions) was under 0%, the “Neuroprotection (%)” value ([1]; 1.0 μM, OGD conditions) was 18.8 ± 1.1% and the “Neuroprotection (%)” value ([1]; 5.0 μM, OGD conditions) was 21.7 ± 1.2%. The “Neuroprotection (%)” value ([1]; 10 μM, OGD conditions) was 0.8 ± 0.07%, the “significant increase of neuronal viability during reperfusion” value ([1]; 1 or 5 μM, compared with R24h) was “not” and the “neuronal viability in R5d experiment (versus 100% control)” value [2, 5] was 105.6%. The “neuronal viability in R5d experiment (versus 100% control)” value ([2]; 5 μM, added after 48 h of reperfusion) was 97.8% and the “neuronal viability in R5d experiment (versus 100% control)” value [2, 6] was 118.6%.

In the case of C[N+](C)(C)CCOP(=O)(O)OP(=O)([O-])OC[C@H]1O[C@@H](n2ccc(N)nc2=O)[C@H](O)[C@@H]1O [citicoline, reference compound], the “neuronal viability (versus 100% control)” value ([1]; 10 μM) was 87.4%, the “Neuroprotection (%)” value ([1]; 100 μM, OGD conditions) was 50.2 ± 1.26% and the “neuronal viability (versus 100% control)” value ([1]; 100 μM) was 88.1%. For the same molecule, the “neuronal viability in R5d experiment (versus 100% control)” value ([2]; 100 μM, added after 48 h of reperfusion) was 74.6% and the “neuronal viability in R5d experiment (versus 100% control)” value ([2]; 100 μM, added at the beginning of reperfusion) was 76.0%.
